One block for each compound: values may come before it. The source made the active and inactive calls.
How the values were obtained:
[1] = Fluorescence-based cell-based high throughput dose response assay for inhibitors of the interaction of nucleotide-binding oligomerization domain containing 2 (NOD2) and the receptor-interacting serine-threonine kinase 2 (RIPK2).; assay type: functional; settings: Homo sapiens
Hexokinase HKDC1 = target: T1, Hexokinase HKDC1 (Homo sapiens, UniProt Q2TB90); test: HKDC1 hexokinase activators, dose response, biochemical, W721R variant (AID 504730); assay type: functional
T1 sequence (Q2TB90 whole entry): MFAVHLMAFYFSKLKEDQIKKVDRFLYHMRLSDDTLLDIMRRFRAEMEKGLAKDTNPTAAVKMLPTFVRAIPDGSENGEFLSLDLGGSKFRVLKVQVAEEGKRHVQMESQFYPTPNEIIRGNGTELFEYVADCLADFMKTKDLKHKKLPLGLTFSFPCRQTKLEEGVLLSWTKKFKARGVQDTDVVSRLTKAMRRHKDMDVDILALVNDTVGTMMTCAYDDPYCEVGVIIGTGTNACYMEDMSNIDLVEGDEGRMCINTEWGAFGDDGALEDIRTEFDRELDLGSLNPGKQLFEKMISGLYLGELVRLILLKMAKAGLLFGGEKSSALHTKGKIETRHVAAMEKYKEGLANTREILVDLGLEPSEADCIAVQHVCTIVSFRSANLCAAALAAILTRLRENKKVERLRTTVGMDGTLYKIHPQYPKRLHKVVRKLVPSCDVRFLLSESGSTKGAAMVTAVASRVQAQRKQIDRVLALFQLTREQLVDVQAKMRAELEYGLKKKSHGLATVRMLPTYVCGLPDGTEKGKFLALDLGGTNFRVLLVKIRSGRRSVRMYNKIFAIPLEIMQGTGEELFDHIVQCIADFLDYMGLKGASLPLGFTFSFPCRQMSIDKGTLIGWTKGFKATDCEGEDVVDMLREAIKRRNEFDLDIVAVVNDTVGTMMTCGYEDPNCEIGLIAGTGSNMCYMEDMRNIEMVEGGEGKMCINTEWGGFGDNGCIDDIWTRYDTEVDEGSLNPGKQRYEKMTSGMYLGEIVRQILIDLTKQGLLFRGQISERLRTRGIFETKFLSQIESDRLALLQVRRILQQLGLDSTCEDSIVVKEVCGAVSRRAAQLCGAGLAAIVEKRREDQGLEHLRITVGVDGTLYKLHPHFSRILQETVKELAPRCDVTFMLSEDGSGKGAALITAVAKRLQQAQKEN

Coagulation factor XII = target: T2, Coagulation factor XII (Homo sapiens, UniProt P00748); assay type: functional;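 further: activated factor XIIa alpha cleaving a fluorogenic AMC peptide substrate; inhibitor potency from loss of enzyme activity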
T2 sequence (P00748 whole entry): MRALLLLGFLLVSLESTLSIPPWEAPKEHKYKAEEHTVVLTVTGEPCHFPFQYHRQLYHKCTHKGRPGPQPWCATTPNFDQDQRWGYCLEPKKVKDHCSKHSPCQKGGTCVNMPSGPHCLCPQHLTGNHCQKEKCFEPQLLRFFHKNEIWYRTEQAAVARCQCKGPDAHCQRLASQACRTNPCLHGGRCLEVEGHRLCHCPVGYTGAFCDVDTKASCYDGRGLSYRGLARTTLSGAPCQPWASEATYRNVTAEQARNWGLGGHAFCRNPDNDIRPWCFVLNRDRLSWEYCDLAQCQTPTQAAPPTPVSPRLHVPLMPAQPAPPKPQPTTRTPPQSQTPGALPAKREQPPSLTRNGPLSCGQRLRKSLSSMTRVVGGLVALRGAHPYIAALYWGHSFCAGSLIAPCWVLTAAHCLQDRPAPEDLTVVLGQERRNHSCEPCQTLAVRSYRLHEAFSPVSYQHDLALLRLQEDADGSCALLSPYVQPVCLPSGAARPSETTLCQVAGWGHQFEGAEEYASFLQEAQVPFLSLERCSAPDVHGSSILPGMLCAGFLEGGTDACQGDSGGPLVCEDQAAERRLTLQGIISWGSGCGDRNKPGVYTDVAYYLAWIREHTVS

Protein Rev = Protein Rev (Human immunodeficiency virus type 1 group M subtype B (isolate HXB2)(HIV-1), UniProt P04618); test: inhibitors of Rev binding to RRE RNA, dose response, biochemical, fluorescence polarization, HIV-1 (AID 434976); parameters: species or system Human immunodeficiency virus 1
Protein Rev, sequence (P04618 whole entry): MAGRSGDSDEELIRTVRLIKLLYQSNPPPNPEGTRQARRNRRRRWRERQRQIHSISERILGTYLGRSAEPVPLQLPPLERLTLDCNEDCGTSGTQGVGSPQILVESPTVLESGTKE

[2] = Shn3 3'UTR reporter inhibitors, dose response, cell-based, Clone20 osteoblasts, firefly luciferase, cherry-picked (AID 624132); assay type: functional;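 further: firefly luciferase luminescence from reporter carrying the Shn3 3'UTR in osteoblasts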
[3] = HepG2 cell cytotoxicity, dose response, cytotoxicity control for Shn3 inhibitor project, CellTiter-Glo, cherry-picked (AID 624134); assay type: functional, cell-based
[4] = inhibitors of HIV Env-driven cell fusion, dose response, cherry-pick (AID 652057); assay type: functional, cell-based
[5] = off-target signal loss in HeLa-CEM21 co-culture – HeLa F-luc CTL cells, cherry-picked, counter-screen for HIV-1 Env fusion inhibitor project, dose response (AID 652040); assay type: functional, cell-based;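 further: potency for signal decrease marking cytotoxic or nonspecific inhibition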
Activin receptor type-1 = Activin receptor type-1 (Homo sapiens, UniProt Q04771); test: Navigating the Kinome. Panel member name: ACVR1; assay type: functional
Activin receptor type-1, sequence (Q04771 whole entry): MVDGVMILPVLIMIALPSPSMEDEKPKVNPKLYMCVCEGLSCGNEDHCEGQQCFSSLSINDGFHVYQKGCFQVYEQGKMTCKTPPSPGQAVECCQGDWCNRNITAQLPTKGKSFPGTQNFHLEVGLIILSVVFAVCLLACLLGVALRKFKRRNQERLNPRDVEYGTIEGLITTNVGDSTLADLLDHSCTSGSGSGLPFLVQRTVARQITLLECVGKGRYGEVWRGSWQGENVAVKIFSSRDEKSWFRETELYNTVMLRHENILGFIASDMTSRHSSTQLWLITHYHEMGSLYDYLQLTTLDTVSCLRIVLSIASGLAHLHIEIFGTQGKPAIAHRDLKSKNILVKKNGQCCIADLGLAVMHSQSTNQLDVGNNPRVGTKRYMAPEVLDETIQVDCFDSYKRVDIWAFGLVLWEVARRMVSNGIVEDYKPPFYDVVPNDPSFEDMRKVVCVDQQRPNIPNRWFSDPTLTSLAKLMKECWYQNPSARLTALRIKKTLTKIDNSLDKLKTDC

[6] = target: Mitogen-activated protein kinase 8 (Homo sapiens, UniProt P45983); assay type: functional;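 further: value comes from one member of a kinome-wide kinase profiling panel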
Mitogen-activated protein kinase 8, sequence (P45983 whole entry): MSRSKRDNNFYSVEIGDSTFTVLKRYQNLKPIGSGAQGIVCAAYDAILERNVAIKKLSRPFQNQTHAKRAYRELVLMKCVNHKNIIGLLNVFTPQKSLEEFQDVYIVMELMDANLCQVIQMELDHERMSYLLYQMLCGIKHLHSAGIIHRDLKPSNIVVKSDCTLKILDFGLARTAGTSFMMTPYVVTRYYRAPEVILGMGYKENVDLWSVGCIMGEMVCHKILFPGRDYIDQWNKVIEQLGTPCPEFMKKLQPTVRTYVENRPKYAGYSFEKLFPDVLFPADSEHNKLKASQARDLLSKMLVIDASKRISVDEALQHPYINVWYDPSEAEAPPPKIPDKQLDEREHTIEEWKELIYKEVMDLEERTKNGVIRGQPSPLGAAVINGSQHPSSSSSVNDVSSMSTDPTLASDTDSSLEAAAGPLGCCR

[7] = target: High affinity nerve growth factor receptor (Homo sapiens, UniProt P04629); assay type: functional;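 further: NTRK1 tested as one member of a kinome-wide profiling panel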
[8] = target: Non-receptor tyrosine-protein kinase TYK2 (Homo sapiens, UniProt P29597); assay type: functional
Non-receptor tyrosine-protein kinase TYK2, sequence (P29597 whole entry): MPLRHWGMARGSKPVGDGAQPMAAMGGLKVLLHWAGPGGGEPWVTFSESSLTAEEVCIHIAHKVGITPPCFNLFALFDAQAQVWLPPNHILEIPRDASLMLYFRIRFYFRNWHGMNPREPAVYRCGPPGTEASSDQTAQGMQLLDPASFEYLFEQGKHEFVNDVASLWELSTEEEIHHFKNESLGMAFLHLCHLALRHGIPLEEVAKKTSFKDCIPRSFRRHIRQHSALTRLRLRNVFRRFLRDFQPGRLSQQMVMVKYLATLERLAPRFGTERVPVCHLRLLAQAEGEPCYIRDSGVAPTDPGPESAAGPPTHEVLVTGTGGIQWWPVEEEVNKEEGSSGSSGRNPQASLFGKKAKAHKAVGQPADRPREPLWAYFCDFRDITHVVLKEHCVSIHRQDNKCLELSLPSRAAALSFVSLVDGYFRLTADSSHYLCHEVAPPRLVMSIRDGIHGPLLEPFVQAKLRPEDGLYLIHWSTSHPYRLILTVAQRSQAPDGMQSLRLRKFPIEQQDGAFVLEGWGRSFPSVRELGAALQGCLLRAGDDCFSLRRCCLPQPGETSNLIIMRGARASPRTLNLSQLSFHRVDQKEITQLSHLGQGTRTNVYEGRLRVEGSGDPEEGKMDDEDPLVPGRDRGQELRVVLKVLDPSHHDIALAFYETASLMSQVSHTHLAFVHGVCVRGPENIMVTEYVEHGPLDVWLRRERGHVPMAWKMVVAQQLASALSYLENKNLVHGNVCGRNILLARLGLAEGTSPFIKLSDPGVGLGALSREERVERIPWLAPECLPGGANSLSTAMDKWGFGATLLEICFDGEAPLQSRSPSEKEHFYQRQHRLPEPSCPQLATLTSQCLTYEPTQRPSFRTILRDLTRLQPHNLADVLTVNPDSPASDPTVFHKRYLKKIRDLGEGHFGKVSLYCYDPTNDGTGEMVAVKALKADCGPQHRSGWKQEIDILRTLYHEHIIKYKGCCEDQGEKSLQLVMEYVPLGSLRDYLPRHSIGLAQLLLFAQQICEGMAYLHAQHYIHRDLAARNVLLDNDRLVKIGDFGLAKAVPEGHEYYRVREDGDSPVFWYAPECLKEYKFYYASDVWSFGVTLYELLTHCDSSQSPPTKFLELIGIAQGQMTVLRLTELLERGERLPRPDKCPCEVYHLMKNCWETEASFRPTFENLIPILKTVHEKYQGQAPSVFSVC

[9] = target: Dual specificity tyrosine-phosphorylation-regulated kinase 3 (Homo sapiens, UniProt O43781); assay type: functional;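 further: measured as one member of a broad kinase panel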
Dual specificity tyrosine-phosphorylation-regulated kinase 3, sequence (O43781 whole entry): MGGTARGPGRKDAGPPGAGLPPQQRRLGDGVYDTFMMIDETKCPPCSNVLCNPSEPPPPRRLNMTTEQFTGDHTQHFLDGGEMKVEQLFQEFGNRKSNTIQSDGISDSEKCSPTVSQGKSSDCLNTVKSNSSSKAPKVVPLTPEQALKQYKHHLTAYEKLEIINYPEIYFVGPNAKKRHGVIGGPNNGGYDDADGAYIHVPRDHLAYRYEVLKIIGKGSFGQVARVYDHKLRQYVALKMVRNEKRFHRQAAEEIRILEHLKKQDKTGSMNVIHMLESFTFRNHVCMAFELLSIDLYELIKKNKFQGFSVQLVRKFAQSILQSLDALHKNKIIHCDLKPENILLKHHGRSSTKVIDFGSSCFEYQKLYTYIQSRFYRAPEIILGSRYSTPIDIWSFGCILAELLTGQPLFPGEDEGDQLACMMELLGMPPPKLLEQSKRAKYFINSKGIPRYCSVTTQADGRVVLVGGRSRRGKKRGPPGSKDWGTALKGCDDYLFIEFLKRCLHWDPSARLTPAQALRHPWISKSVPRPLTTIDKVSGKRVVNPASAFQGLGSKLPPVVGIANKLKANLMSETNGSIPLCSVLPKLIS

[10] = target: Interleukin-1 receptor-associated kinase 4 (Homo sapiens, UniProt Q9NWZ3); assay type: functional
Interleukin-1 receptor-associated kinase 4, sequence (Q9NWZ3 whole entry): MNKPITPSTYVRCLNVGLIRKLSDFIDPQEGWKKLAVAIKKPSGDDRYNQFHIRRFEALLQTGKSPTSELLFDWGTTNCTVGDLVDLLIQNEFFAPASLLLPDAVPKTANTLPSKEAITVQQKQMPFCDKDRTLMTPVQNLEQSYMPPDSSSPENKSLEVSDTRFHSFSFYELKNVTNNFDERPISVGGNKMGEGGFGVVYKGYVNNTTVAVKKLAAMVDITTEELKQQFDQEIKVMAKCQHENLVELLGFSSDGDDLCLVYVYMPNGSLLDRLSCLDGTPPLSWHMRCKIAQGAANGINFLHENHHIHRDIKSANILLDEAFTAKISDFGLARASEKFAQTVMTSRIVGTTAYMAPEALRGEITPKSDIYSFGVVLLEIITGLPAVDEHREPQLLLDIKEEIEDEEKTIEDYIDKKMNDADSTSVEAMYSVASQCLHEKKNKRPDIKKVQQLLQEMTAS

[11] = target: Cyclin-dependent kinase 1 (Homo sapiens, UniProt P06493); assay type: functional;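 further: Kinome-wide panel profiling, with the target listed as panel member CDC2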
Cyclin-dependent kinase 1, sequence (P06493 whole entry): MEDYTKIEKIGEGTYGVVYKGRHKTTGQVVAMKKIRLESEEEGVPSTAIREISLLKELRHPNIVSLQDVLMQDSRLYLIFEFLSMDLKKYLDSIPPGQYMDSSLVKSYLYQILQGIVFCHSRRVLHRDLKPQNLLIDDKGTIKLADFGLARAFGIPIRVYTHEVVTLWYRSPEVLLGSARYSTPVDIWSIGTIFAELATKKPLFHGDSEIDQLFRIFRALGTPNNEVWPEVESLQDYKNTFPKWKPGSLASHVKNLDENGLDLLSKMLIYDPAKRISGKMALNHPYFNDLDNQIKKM

[12] = target: T3, Mannose-6-phosphate isomerase (Homo sapiens, UniProt P34949); test: human PMI inhibitors, high substrate, primary screen, biochemical, fluorescence intensity, high mannose 6-phosphate (AID 1220)
T3 sequence (P34949 whole entry): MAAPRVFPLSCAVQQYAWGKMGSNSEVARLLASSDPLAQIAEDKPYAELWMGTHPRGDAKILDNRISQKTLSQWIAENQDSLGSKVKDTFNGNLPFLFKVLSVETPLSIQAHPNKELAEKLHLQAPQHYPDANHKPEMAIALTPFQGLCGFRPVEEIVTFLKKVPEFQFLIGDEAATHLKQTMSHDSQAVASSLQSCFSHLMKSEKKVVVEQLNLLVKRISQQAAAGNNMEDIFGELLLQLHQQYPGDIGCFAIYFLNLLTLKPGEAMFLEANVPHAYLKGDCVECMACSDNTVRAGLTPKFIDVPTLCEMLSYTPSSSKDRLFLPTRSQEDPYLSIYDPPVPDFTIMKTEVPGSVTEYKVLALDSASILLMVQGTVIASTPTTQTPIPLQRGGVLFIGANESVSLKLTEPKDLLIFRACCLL

[13] = target: Ribosomal protein S6 kinase alpha-5 (Homo sapiens, UniProt O75582); assay type: functional
Ribosomal protein S6 kinase alpha-5, sequence (O75582 whole entry): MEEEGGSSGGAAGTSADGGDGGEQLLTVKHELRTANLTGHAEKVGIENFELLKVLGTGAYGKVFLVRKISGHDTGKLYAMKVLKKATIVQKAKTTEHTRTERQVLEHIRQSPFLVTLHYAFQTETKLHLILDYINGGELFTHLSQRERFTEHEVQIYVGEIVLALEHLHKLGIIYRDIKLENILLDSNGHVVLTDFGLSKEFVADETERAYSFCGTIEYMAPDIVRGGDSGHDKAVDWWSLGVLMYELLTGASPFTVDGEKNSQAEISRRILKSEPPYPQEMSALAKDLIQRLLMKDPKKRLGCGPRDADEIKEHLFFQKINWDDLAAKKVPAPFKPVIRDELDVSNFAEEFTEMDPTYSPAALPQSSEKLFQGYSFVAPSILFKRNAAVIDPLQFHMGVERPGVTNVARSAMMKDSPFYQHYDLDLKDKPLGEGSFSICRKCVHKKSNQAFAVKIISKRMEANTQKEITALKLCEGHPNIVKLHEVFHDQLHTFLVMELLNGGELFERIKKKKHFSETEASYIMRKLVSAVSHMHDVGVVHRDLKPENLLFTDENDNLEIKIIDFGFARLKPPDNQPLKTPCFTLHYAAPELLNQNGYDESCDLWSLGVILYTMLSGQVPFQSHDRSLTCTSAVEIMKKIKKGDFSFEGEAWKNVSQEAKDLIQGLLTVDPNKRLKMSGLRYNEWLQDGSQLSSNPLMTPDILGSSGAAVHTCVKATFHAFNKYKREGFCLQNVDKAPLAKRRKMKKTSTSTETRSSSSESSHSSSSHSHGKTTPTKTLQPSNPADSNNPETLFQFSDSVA

SMILES: COC(=O)CCS(=O)(=O)c1nc(-c2ccccc2)cc(C(F)(F)F)n1
IC50 [1]: 3.08 µM (active)

SMILES: O=C(O)c1ccc(NC2=C(Cl)C(=O)c3ccccc3C2=O)cc1
EC50 (Hexokinase HKDC1): 5.62 µM (active)
IC50 (Coagulation factor XII): > 50 µM (inactive)

SMILES: O=C(O)c1ccc2c3c(ncnc13)-c1ccccc1C2=O
IC50 (Protein Rev): 9.78 µM (active)

SMILES: CCOC(=O)c1c2c(n(Cc3ccccc3)c1C)C(=O)C(=O)c1ccccc1-2
AC50 [2]: 2.3 µM (active)
AC50 [3]: 6.74 µM (active)
AC50 [4]: 6.28 µM (active)
AC50 [5]: 6.77 µM (active)

Ki (Activin receptor type-1): 0.316 µM (active)
Ki [6]: > 3.16 µM (inactive)
Ki [7]: > 2.51 µM (inactive)
Ki [8]: > 2 µM (inactive)
Ki [9]: > 6.31 µM (inactive)
Ki [10]: > 10 µM (inactive)
Ki [11]: 0.501 µM (active)
SMILES: Cc1ccc2nccc(NC(=O)Nc3cccc(C(F)(F)F)n3)c2c1

SMILES: Cc1c(/N=C2\C=CC(=O)c3ccccc32)c(=O)n(-c2ccccc2)n1C
IC50 [12]: 46.4 µM (active)

SMILES: COc1cc2c(cc1F)C(c1ccccc1Cl)=Nc1c(n[nH]c1C)N2 [RG-1530]
Ki [13]: > 2 µM (inactive)

— ChEMBL document CHEMBL1201862, “PubChem BioAssay data set” (2004)
